Measured values taken from patent publication US11535632B2, “Solid forms of an S1P-receptor modulator” (ESCAPE Bio, Inc., priority 2019, dated 2022).

How the values were obtained:
Format in all cases: physicochemical
[1] = Competitive slurries of Form B and C in process relevant solvents; details: 72 hours, start Form B + C
Description: Determination of the relative stabilities of Form B and Form C was undertaken to identify which material was more thermodynamically stable in process relevant solvents. As a suspected solvate was isolated from experiments where DMAC was used as a solvent, only DMSO and acetic acid were determined to be appropriate process solvents. Combinations of these solvents with relevant antisolvents were therefore selected for the competitive slurry experiments.
Compound 1 (from Example 2) was dispensed into HPLC vials. To these, 1 ml of selected solvents was subsequently added to give a suspension. Materials were slurried for 72 hours at 90° C., 50° C. or 25° C. with 500 rpm stirring. Material was subsequently isolated by centrifugation and analyzed by XRPD.

[2] = Water activity study; details: 4 days, start Form A + Form B
Description: About 15 mg of Form A and 15 mg of Form B were added to the saturated solutions of different water activities and equilibrated at 25° C. and 50° C. for 4 days, respectively. The resulting suspensions were filtered, and the solid parts (wet cake) were investigated by XRPD to determine the polymorph.
According to XRPD results, Form B was obtained in methanol/water with water activity (a.w.) ranging from 0.1 to 0.9 at 25° C., as shown in FIGS. 20A-20B. At 50° C., Form B was obtained in methanol/water with a.w. ≥0.2, whereas a mixture of Form A and Form B was obtained in a.w. […] The water activity of the binary solvent system was calculated based on UNIFAC method (UNIQUAC Functional-group Activity Coefficients).

[3] = Solubility and metastable zone width by Crystal 16; details: for metastable zone width: 0.5° C./min
Description: A Crystal 16 crystallization system (Technobis, NL) was used to determine the solubility and metastable zone of the material as a function of temperature. Slurries of the API, in different overall concentrations, were prepared by adding a known amount of solid to a known amount of chilled solvent (between 0.5 and 1.5 ml) and stirred at 350 rpm using a magnetic bar. The saturation temperature was measured through cycles of heating and cooling from 20 to 90° C. at 0.5° C./min.
Upon increasing the temperature, the solid completely dissolved and the suspension became a clear solution such that the light transmission reached its maximum value. This temperature was assigned as the clear point, which was assumed to coincide with the saturation temperature. Then, by cooling the solution at a rate of 0.5° C./min, the temperature at which particles first formed was detected by a decrease in the light transmission. This was assigned as the cloud point. The points were fitted by a Van′t Hoff equation and the difference between the cloud and the clear points defined the metastable zone width (MSZW) of the system. The instrument control software was Crystallization Systems and the data were analyzed using Crystal Clear and Microsoft Excel.
The solubility of compound 1 (various masses) in DMAC and DMSO (1 ml) was analyzed on the Crystal 16 (between 25-90° C. for DMSO and 0-90° C. for DMAC). A heating/cooling rate of 0.5° C./min and a stirring rate of 300 rpm was used for all samples. The resulting turbidity/temperature plots were analyzed to obtain solubility curves and determine the metastable zone width. Any precipitated solids were isolated by filtration and analyzed by XRPD.

XRPD analysis after slurrying ([1]; Acetic acid:H2O (1:1), 25° C.): Form B
XRPD analysis after slurrying ([1]; Acetic acid:H2O (1:1), 50° C.): Form B
XRPD analysis after slurrying ([1]; Acetic acid:H2O (1:1), 90° C.): Form B
XRPD analysis after slurrying ([1]; Acetic acid:MeCN (1:3), 25° C.): Form B
XRPD analysis after slurrying ([1]; Acetic acid:MeCN (1:3), 50° C.): Form B
XRPD analysis after slurrying ([1]; Acetic acid:MeCN (1:3), 90° C.): Form B
XRPD analysis after slurrying ([1]; DMSO, 25° C.): Form B
XRPD analysis after slurrying ([1]; DMSO, 50° C.): Poorly crystalline
XRPD analysis after slurrying ([1]; DMSO, 90° C.): poorly crystalline Form A
XRPD analysis after slurrying ([1]; DMSO:H2O (1:1), 25° C.): Form B
XRPD analysis after slurrying ([1]; DMSO:H2O (1:1), 50° C.): Form B
XRPD analysis after slurrying ([1]; DMSO:H2O (1:1), 90° C.): Form B
XRPD of solid after equilibration ([2]; Methanol/water (20:80, v/v) a.w. = 0.9, 25° C.): Form B
XRPD of solid after equilibration ([2]; Methanol/water (20:80, v/v) a.w. = 0.9, 50° C.): Form B
XRPD of solid after equilibration ([2]; Methanol/water (57:43, v/v) a.w. = 0.7, 25° C.): Form B
XRPD of solid after equilibration ([2]; Methanol/water (57:43, v/v) a.w. = 0.7, 50° C.): Form B
XRPD of solid after equilibration ([2]; Methanol/water (69:31, v/v) a.w. = 0.6, 25° C.): Form B
XRPD of solid after equilibration ([2]; Methanol/water (69:31, v/v) a.w. = 0.6, 50° C.): Form B
XRPD of solid after equilibration ([2]; Methanol/water (77:23, v/v) a.w. = 0.5, 25° C.): Form B
XRPD of solid after equilibration ([2]; Methanol/water (77:23, v/v) a.w. = 0.5, 50° C.): Form B
XRPD of solid after equilibration ([2]; Methanol/water (84:16, v/v) a.w. = 0.4, 25° C.): Form B
XRPD of solid after equilibration ([2]; Methanol/water (84:16, v/v) a.w. = 0.4, 50° C.): Form B
XRPD of solid after equilibration ([2]; Methanol/water (89:11, v/v) a.w. = 0.3, 25° C.): Form B
XRPD of solid after equilibration ([2]; Methanol/water (89:11, v/v) a.w. = 0.3, 50° C.): Form B
XRPD of solid after equilibration ([2]; Methanol/water (93:7, v/v) a.w. = 0.2, 25° C.): Form B
XRPD of solid after equilibration ([2]; Methanol/water (93:7, v/v) a.w. = 0.2, 50° C.): Form B
XRPD of solid after equilibration ([2]; Methanol/water (97:3, v/v) a.w. = 0.1, 25° C.): Form B
XRPD of solid after equilibration ([2]; Methanol/water (97:3, v/v) a.w. = 0.1, 50° C.): Form A + B
metastable zone width ([3]; DMAC, 0-90° C.): ca. 30 °C
metastable zone width ([3]; DMSO, 25-90° C.): ca. 30 °C
solubility ([3]; neat acetic acid): very high solubility
SMILES: O=C(O)[C@H]1C[C@@H](N2CCc3oc(-c4ccc(OCc5ccc(Cl)cc5)cc4)nc3C2)C1 [Compound 1, (1s,3s)-3-(2-(4-((4-chlorobenzyl)oxy)phenyl)-6,7-dihydrooxazolo[4,5-c]pyridin-5(4H)-yl)cyclobutane-1-carboxylic acid]
